Experimental data taken from US4044043A, “Derivatives of 9-oxo-13-trans-prostenoic acid esters” (American Cyanamid Company, priority 1975, dated 1977).
Values after ≈ are worked out from the molar mass of the structure shown. Where two headings read alike, the source gives them in different places.

Tests used:
[1] = system: Microsporum gypseum ATCC 14683; assay: agar-dilution streak-plate antimicrobial assay; type: cell-based; conditions: Nannizzia gypsea, ATCC14683, read-out: Minimal inhibitory conc. (2)
In short: (§1)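 Complete absence of visible growth on the streak defines the MIC, given in µg/ml. Each compound, made up at 2.5 mg/ml and diluted two-fold, is incorporated 1:10 into organism-appropriate nutrient agar before loop inoculation and incubation.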

[2] = system: Microsporum canis ATCC 10214; assay: agar-dilution streak-plate antimicrobial assay; type: cell-based; conditions: ATCC10214, read-out: Minimal inhibitory conc. (1)
In short: as §1

[3] = system: Mycobacterium smegmatis ATCC 606; assay: agar-dilution streak-plate antimicrobial assay; type: cell-based; conditions: Mycolicibacterium smegmatis, ATCC606, read-out: Minimal inhibitory conc. (6)
In short: as §1

[4] = system: Streptococcus pyogenes C 203; assay: agar-dilution streak-plate antimicrobial assay; type: cell-based; conditions: C203, read-out: Minimal inhibitory conc. (8)
In short: as §1

[5] = system: Staphylococcus aureus Rose ATCC 14154; assay: agar-dilution streak-plate antimicrobial assay; type: cell-based; conditions: ATCC14154, read-out: Minimal inhibitory conc. (7)
In short: as §1

[6] = system: Trichophyton tonsurans NIH 662; assay: agar-dilution streak-plate antimicrobial assay; type: cell-based; conditions: NIH662, read-out: Minimal inhibitory conc. (3)
In short: as §1

[7] = system: Trichophyton mentagrophytes E 11; assay: agar-dilution streak-plate antimicrobial assay; type: cell-based; conditions: E11, read-out: Minimal inhibitory conc. (4)
In short: as §1

[8] = system: diastolic blood pressure; assay: Prostaglandin-like hypotensive activity in anesthetized rats (minimal dose for about 10 mm. decrease in diastolic blood pressure); type: in vivo, Male Wistar strain rats; conditions: Rattus norvegicus; intravenous; decrease of about 10 mm. in diastolic blood pressure
In short: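 Male Wistar rats (~250 g), pentobarbital 30 mg./kg. i.v. and hexamethonium 2 mg./kg. i.v., iliac artery cannulated for blood pressure. Compounds in saline-Tween 80 given i.v. at 0.1–10.0 mg./kg.; value is the minimal dose giving ~10 mm. drop in diastolic pressure.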

[9] = system: bronchospasms elicited by 5-hydroxytryptamine; assay: Bronchodilator Activity (Konzett Assay) against 5-hydroxytryptamine; type: in vivo, guinea pigs; conditions: Cavia porcellus; three logarithmic cumulative intravenous doses
In short: (§2)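 Guinea pigs given intravenous spasmogen (5-hydroxytryptamine, histamine or acetylcholine) per Konzett procedure. ED50 derived from three logarithmic cumulative intravenous doses of test compound.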

[10] = system: bronchospasms elicited by acetylcholine; assay: Bronchodilator Activity (Konzett Assay) against acetylcholine; type: in vivo, guinea pigs; conditions: Cavia porcellus; three logarithmic cumulative intravenous doses
In short: as §2

[11] = system: Trichophyton rubrum E 97; assay: agar-dilution streak-plate antimicrobial assay; type: cell-based; conditions: E97, read-out: Minimal inhibitory conc. (5)
In short: as §1

[12] = system: bronchospasms elicited by histamine; assay: Bronchodilator Activity (Konzett Assay) against histamine; type: in vivo, guinea pigs; conditions: Cavia porcellus; three logarithmic cumulative intravenous doses
In short: as §2

[13] = system: dl-PGE1-induced contraction of gerbil colon; assay: Inhibition of dl-PGE1-Induced Contraction of Gerbil Colon (prostaglandin antagonist action); type: cell-based, gerbils (Meriones unguiculatus); conditions: Meriones unguiculatus, 1 min; sub-maximal challenge, 20 ng./ml. dl-PGE1; 50% inhibition of maximum response; read-out: ID50 vs. 20 ng. of PGE1/ml.
In short: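 Ascending colon from male gerbils, held in De Jalon's solution at 37 °C under 95% O2/5% CO2 with 0.5 g resting tension, contraction recorded isometrically. 1 min compound exposure, then 1 min dl-PGE1 at 200 ng/ml (maximal) or 20 ng/ml (sub-maximal). Approximate ID50 taken from a concentration series against the preceding agonist-only cycle.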

[14] = system: gastric acid secretion; assay: Inhibition of basal Gastric Acid Secretion (Acute Gastric Fistula Rat); type: in vivo, Female Sprague-Dawley rats; conditions: 2 h, 10 mg./kg. intraduodenal, B: 120 minute collection
Protocol: Inhibition of basal gastric acid secretion was determined in the acute gastric fistula rat as follows. Female Sprague-Dawley rats (Charles River Laboratories) weighing 140-160 grams are fasted in individual cages for 18-24 hours. The rats are then lightly anesthetized with ether and their front teeth extracted to avoid destruction of the plastic cannula. A midline incision is then made and the stomach and duodenum exposed. A flanged polyvinyl tube is inserted into the fundic portion of the stomach and secured with a purse string suture line using 4-0 Mersilene. The rat is then dosed by injection of the compound into the duodenum (1.0 ml. per 100 gram body weight). After dosing, the abdominal wall and skin are closed using metal wound clips. The rat is replaced in a cage containing a longitudinal slit to allow the polyvinyl tube to hang freely. An 8 ml. plastic collecting tube is attached to the flanged cannula and hangs freely below the cage. The first 30 minute sample is discarded designating this time as zero. The collecting tube is attached again and samples removed at the end of 60 and 120 minutes. Those samples are referred to as "A" and "B" in the table. The hourly samples are then transferred to a 15 ml. centrifuge tube and centrifuged for 5-10 minutes. Total and sediment volume are then recorded with the supernatant volume being used as volume of secretion. A 1 ml. or less aliquot is then removed and placed in a 50 ml. beaker containing 10 ml. of distilled water. This sample is then titrated using 0.01N NaOH to pH 7.0 using a Beckman zeromatic pH meter. Volume, titratable acidity (meq/L) and total acid output (μ eq/hour) are recorded. Percent inhibition is determined by comparison with the appropriate control. Groups of three rats were used. All compounds are administered in vehicle (0.5% methocel, 0.4% Tween 80, saline) at a constant volume of 1 ml./100 gram rat. Samples were sonicated with care to prevent overheating.

Row | Structure (SMILES) | MIC [1] | MIC [2] | MIC [3] | MIC [4] | MIC [5] | MIC [6] | MIC [7] | minimal effective dose [8] | ED50 [9] | ED50 [10] | MIC [11] | ED50 [12] | IC50 [13] | inhibition in vivo at 10 mg/kg ([14]; read-out: % Inhibition Total Acid Output) | inhibition in vivo at 10 mg/kg ([14]; read-out: % Inhibition Total Acidity)
1 | CCCCCC/C=C/[C@H]1CCC(O)[C@@H]1CCCCCCC(=O)O (stereo partly drawn) [9-hydroxy-13-trans-prostenoic acid, 9α- and 9β-hydroxy-13-trans-prostenoic acid] | 25 µg/mL (≈ 77 µM) | 50 µg/mL (≈ 154 µM) | 25 µg/mL (≈ 77 µM) | 25 µg/mL (≈ 77 µM) | 50 µg/mL (≈ 154 µM) | 50 µg/mL (≈ 154 µM) | 50 µg/mL (≈ 154 µM) | 2 mg/kg | – | – | – | – | – | – | –
2 | CCCCCC/C=C/[C@@H]1CCC(=O)[C@H]1CCCCCCC(=O)OCCN(C)C (relative stereo) [β-dimethylaminoethyl 9-oxo-13-trans-prostenoate] | – | 250 µg/mL (≈ 635 µM) | 10 µg/mL (≈ 25.4 µM) | 10 µg/mL (≈ 25.4 µM) | 50 µg/mL (≈ 127 µM) | 250 µg/mL (≈ 635 µM) | – | 0.5 to 2 mg/kg | – | – | – | – | – | – | –
3 | CCCCCCC=CC1CCC(O)C1CCCCC(=O)O (stereo not drawn) [9-hydroxy-6,7-dinor-13-trans-prostenoic acid] | 62 µg/mL (≈ 209 µM) | 250 µg/mL (≈ 843 µM) | 62 µg/mL (≈ 209 µM) | 62 µg/mL (≈ 209 µM) | 250 µg/mL (≈ 843 µM) | 62 µg/mL (≈ 209 µM) | 62 µg/mL (≈ 209 µM) | 2 mg/kg | > 10 mg/kg | > 10 mg/kg | 250 µg/mL (≈ 843 µM) | 6.06 mg/kg | 10 to 12 µg/mL (≈ 33.7 to 40.5 µM) | – | –
4 | CCCCCC/C=C/[C@H]1CCC(=O)[C@@H]1CCCCC(=O)O (relative stereo) [9-oxo-6,7-dinor-13-trans-prostenoic acid] | 250 µg/mL (≈ 849 µM) | 250 µg/mL (≈ 849 µM) | 250 µg/mL (≈ 849 µM) | 250 µg/mL (≈ 849 µM) | 250 µg/mL (≈ 849 µM) | 250 µg/mL (≈ 849 µM) | 250 µg/mL (≈ 849 µM) | 2 mg/kg | – | – | 250 µg/mL (≈ 849 µM) | – | 10 to 20 µg/mL (≈ 34 to 67.9 µM) | – | –
5 | CC(C)CCC=CC1CCC(O)C1CCCCCCC(=O)O (stereo not drawn) [9-hydroxy-17-methyl-18,19-dinor-13-trans-prostenoic acid] | 62 µg/mL (≈ 200 µM) | – | 62 µg/mL (≈ 200 µM) | 25 µg/mL (≈ 80.5 µM) | 125 µg/mL (≈ 403 µM) | 62 µg/mL (≈ 200 µM) | 62 µg/mL (≈ 200 µM) | 0.2 to 2 mg/kg | – | – | 250 µg/mL (≈ 805 µM) | – | 5 to 10 µg/mL (≈ 16.1 to 32.2 µM) | – | –
6 | CCCCCC/C=C/[C@@H]1CCC(=O)[C@H]1CC(=O)O (relative stereo) [9-oxo-3,4,5,6,7-pentanor-13-trans-prostenoic acid] | 250 µg/mL (≈ 991 µM) | 250 µg/mL (≈ 991 µM) | – | – | – | 125 µg/mL (≈ 495 µM) | 250 µg/mL (≈ 991 µM) | 2 mg/kg | – | – | 250 µg/mL (≈ 991 µM) | – | – | 64% | 48%
